Laboratory results from US20090028925A1, “Novel Phosphinic Acid-Containing Thyromimetics” (priority 2005, published 2009).

How the values were obtained:
[1] = Prodrug activation in rat liver microsomes; type: in vitro ADME; conditions: for Vmax: dexamethasone treated rat microsomes, formation of Compound 7; for microsomal CLint: rat, liver microsomes from dexamethasone-treated rats, intrinsic clearance calculated from the kinetic parameters
Description: (§1) The purpose of these studies was to determine the kinetics of activation of prodrugs of thyromimetics in microsomal preparations. Microsomes contain the P450 enzyme that is required for the activation of many of the prodrugs prepared. The Km, Vmax, and intrinsic clearance values determined are measures of prodrug affinity for the microsomal enzymes, the rate at which the prodrug is activated, and the catalytic efficiency with which the prodrug is activated, respectively.
(§2) Methods: Activation of prodrugs by dexamethasone treated rat hepatocyte microsomes. Microsomes were isolated by standard differential centrifugation methods from dexamethasone-treated rats. The treatment is to increase cytochrome P450-3A (CYP3A4) activity. Induction of CYP3A4 was confirmed by an increase in testosterone hydroxylation.
(§3) Various concentrations of HepDirect™ Compound 7 were incubated with rat hepatocytes microsomes. Compound 7 formation was analyzed by HPLC using UV-Vis detection. Kinetic parameters (Vmax and Km) were calculated from the transformed data and the intrinsic clearance calculated from the kinetic parameters.

[2] = system: CYP3A (cytochrome P450-3A (CYP3A4)); experiment: Prodrug activation in rat liver microsomes; type: in vitro ADME; conditions: liver microsomes from dexamethasone-treated rats; dexamethasone treated rat microsomes, formation of Compound 7
Description: as §1, §2, §3

[3] = molecular target: T1, human thyroid hormone receptors TRβ1 (Homo sapiens, UniProt P10828); experiment: Receptor binding to TRβ1 (gel filtration and scintillation proximity assay, labeled T3); conditions: SPA data; read-out: Ki TRβ
T1 construct: made in house; host or cells: Sf9 insect cells (baculovirus)
T1 sequence (P10828 1-461): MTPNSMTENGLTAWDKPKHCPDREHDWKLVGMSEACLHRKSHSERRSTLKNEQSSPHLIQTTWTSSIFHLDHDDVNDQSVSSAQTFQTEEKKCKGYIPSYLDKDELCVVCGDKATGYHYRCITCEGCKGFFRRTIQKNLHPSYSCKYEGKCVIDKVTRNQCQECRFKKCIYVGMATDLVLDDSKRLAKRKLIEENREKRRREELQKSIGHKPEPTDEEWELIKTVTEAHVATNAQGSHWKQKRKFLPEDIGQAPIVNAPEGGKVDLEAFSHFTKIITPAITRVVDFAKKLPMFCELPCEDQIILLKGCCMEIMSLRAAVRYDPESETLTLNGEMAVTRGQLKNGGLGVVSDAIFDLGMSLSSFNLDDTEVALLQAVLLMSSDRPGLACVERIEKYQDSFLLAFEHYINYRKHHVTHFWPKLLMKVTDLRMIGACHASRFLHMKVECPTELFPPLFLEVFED
T1 sequence (P19793 1-462 partner): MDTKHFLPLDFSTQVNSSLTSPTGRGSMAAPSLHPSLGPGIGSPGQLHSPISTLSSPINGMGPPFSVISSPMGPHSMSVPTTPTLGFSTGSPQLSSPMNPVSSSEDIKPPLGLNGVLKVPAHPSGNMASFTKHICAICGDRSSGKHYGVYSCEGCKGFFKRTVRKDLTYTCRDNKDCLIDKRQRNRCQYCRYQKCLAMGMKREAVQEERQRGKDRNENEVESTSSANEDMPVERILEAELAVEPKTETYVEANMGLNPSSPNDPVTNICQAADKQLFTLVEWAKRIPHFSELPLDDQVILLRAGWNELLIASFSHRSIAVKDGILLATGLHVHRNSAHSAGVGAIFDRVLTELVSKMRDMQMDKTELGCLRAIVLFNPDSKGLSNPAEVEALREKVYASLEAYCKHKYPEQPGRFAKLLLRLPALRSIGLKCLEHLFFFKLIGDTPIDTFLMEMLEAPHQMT

[4] = molecular target: T2, human thyroid hormone receptors TRα1 (Homo sapiens, UniProt P10827); experiment: Receptor binding to TRα1 (gel filtration and scintillation proximity assay, labeled T3); conditions: SPA data; read-out: Ki TRα
T2 construct: made in house; host or cells: Sf9 insect cells (baculovirus)
T2 sequence (P10827 1-410 isoform P10827-2): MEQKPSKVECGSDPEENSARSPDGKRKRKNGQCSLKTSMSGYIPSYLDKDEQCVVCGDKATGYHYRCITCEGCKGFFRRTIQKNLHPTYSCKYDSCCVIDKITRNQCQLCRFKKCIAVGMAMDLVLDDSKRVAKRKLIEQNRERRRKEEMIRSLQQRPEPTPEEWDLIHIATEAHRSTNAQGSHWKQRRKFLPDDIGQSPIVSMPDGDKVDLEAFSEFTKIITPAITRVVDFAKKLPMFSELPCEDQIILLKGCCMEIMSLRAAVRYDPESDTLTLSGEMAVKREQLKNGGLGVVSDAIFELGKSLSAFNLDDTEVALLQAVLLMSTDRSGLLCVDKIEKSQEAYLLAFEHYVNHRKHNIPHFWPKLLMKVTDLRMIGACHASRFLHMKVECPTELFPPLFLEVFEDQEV
T2 sequence (P19793 1-462 partner): T1 sequence (P19793 1-462 partner)

[5] = effects on cholesterol and TSH at the same or not pharmacologically different doses; cited from earlier work
[6] = design: species or system rats; conditions: in vivo, po
Procedure: The oral bioavailability (OBAV) of Compound 12-1, a bis POM prodrug of Compound 7, was estimated by comparison of the dose-normalized area under the curve (AUC) of the plasma concentration-time profile of Compound 7 following IV and PO administration of Compound 7 and Compound 12-1, respectively, to normal rats.
Method: Groups of non-fasted male SD rats were administered either 5 mg/kg of Compound 7 by IV bolus or 20 mg/kg of Compound 12-1 by oral gavage. Prior to drug administration, the rats were catheterized at the tail artery to facilitate blood collection. Plasma samples were obtained at pre-specified time points following dosing, extracted with 1.5 volumes of methanol, and then assayed by an LC-UV method using a C18 column eluted with a gradient of 20% to 45% v/v acetonitrile in a potassium phosphate buffer pH 6.2 over 15 min with UV absorbance monitoring at 280 nm. The AUC values were determined noncompartmentally from the plasma concentration-time plots by trapezoidal summation to the last measurable time point.
Plasma levels of compound were analyzed by HPLC and the AUCs for the i.v. dose of 5 mg/kg and the p.o. dose of 20 mg/kg were compared. The maximum OBAV for Compound 19-2 was 0.003%. Typically, compounds that are taken forward as an oral drug candidate have OBAV values of at least 15-20%, when tested in an animal model. This minimal requirement for OBAV in a genetically homogenous model system insures that exposure can be accurately monitored when humans are treated with the compound. Furthermore, in a genetically variable background such as humans, the variability for a compound with low OBAV in genetically homogenous model systems, can be widely variable, leading some subjects to have much higher than anticipated exposure, while other subjects have no exposure.

microsomal CLint [1] [µL/min/mg]	Km [2] [µM]	Ki [3] [µM]	Ki [4] [µM]	Compound	Vmax [1] [pmol/min/mg]	TSH levels [5]	cholesterol levels [5]	absorption in the rat [6]
29	113	1.01	4.43	Cc1cc(OC[P@@]2(=O)OCC[C@@H](c3ccncc3)O2)cc(C)c1Cc1ccc(O)c(C(C)C)c1 [Compound 13-5-cis, 2-[(3,5-dimethyl-4-(4′-hydroxy-3′-iso-propylbenzyl)phenoxy)methyl]-4-(pyrid-4-yl)-2-oxo-2λ^5-[1,3,2]-dioxaphosphonane]	3266	–	–	–
30	100	1.52	5.53	Cc1cc(OC[P@@]2(=O)OCC[C@@H](c3cccnc3)O2)cc(C)c1Cc1ccc(O)c(C(C)C)c1 [Compound 13-4-cis, 2-[(3,5-dimethyl-4-(4′-hydroxy-3′-iso-propylbenzyl)phenoxy)methyl]-4-(pyrid-3-yl)-2-oxo-2λ^5-[1,3,2]-dioxaphosphonane]	2983	–	–	–
86	8	0.419	0.488	Cc1cc(OC[P@@]2(=O)OCC[C@@H](c3cccc(Br)c3)O2)cc(C)c1Cc1ccc(O)c(C(C)C)c1 [Compound 13-2-cis, 2-[(3,5-dimethyl-4-(4′-hydroxy-3′-iso-propylbenzyl)phenoxy)methyl]-4-(3-bromophenyl)-2-oxo-2λ^5-[1,3,2]-diox aphosphonane]	694	–	–	–
46	46	3.43	2.84	Cc1cc(OC[P@@]2(=O)OCC[C@@H](c3cccc(F)c3)O2)cc(C)c1Cc1ccc(O)c(C(C)C)c1 [Compound 13-3-cis]	2118	–	–	–
–	–	–	–	Cc1cc(OCC(=O)O)cc(C)c1Cc1ccc(O)c(C(C)C)c1 [GC-1, [4-[[4-hydroxy-3-(1-methylethyl)phenyl]methyl]-3,5-dimethylphenoxy]acetic acid]	–	dose-dependently lower	dose-dependently lower	–
–	–	0.662	1.67	Cc1cc(OCP(=O)(OCOC(=O)C(C)(C)C)OCOC(=O)C(C)(C)C)cc(C)c1Cc1ccc(O)c(C(C)C)c1 [Compound 12-1, di(pivaloyloxymethyl) [3,5-Dimethyl-4-(4′-hydroxy-3′-iso-propylbenzyl)phenoxy]methylphosphonate]	–	–	–	adequately absorbed
54	14	0.156	0.738	Cc1cc(OCP(=O)(OCOC(=O)OC(C)C)OCOC(=O)OC(C)C)cc(C)c1Cc1ccc(O)c(C(C)C)c1 [Compound 12-3, di(isopropoxycarbonyloxymethyl)[3,5-dimethyl-4-(4′-hydroxy-3′-iso-propylbenzyl)phenoxy]methylphosphonate]	775	–	–	–

Compound	microsomal CLint [1] [µL/min/mg]	Km [2] [µM]	Ki [3] [µM]	Ki [4] [µM]	Vmax [1] [pmol/min/mg]	TSH levels [5]	cholesterol levels [5]	absorption in the rat [6]
CC(C)c1cc(Oc2c(Br)cc(CP(=O)(O)O)cc2Br)ccc1O [Compound 19-2, [3,5-dibromo-4-(4′-hydroxy-3′-iso-propylphenoxy)]benzylphosphonic Acid]	–	–	0.02	0.343	–	–	–	not adequately absorbed
